Laboratory results as given in patent US10143740B2, “Inactivating pathogens with oxidizing agents for vaccine production” (priority 2005, dated 2018).
Read-outs that look alike come from different tables or passages of the source.

Legend:
[1] = test system: lymphocytic choriomeningitis virus (LCMV)
[2] = mouse, in vivo; cited from earlier work
[3] = rats, inhalation; cited from earlier work
[4] = in vitro and in vivo; cited from earlier work

## OO [H2O2, hydrogen peroxide]
West Nile virus (WNV)
  viral titer after treatment: reduced to below the limit of detection
Yellow fever virus (YFV)
  viral titer after treatment: reduced to below the limit of detection
[1]
  H2O2 concentration at which infectivity is eliminated: < 0.1%
  viral titer after treatment: reduced to below the limit of detection
Monkeypox virus (MPV)
  viral titer after treatment: reduced to below the limit of detection
Vaccinia virus
  H2O2 concentration after which no infectious virus could be detected: ≤ 0.03%
  viral titer after treatment: reduced to below the limit of detection

## O=C1CCO1 [betapropiolactone]
[2]
  carcinogenicity: produce squamous cell carcinomas, lymphomas and hepatomas

## C=O [formaldehyde]
[3]
  carcinogenicity: induces squamous-cell carcinoma of the nasal cavity
[4]
  genotoxicity: genotoxic in vitro and in vivo
